US8148385B2, “Substituted [1,2,3] triazolo[4,5-d]pyrimidine derivatives as ADP P2Y12 receptor antagonists” (Janssen Pharmaceutica N.V., priority 2006, dated 2012)

Experiments:
P2Y12 receptor = biological target: T1, P2Y12 receptor (Homo sapiens, UniProt Q9H244); assay: Whole cell receptor binding assay for 2-MeS[3H]-ADP; settings: whole HEK 293 cells transfected with P2Y12; 2-MeS[3H]-ADP 3 nM; 30 min at 37° C.; read-out: Inhibition of Receptor Binding IC50
T1 construct: expressed in transfected cells
T1 sequence (Q9H244 whole entry): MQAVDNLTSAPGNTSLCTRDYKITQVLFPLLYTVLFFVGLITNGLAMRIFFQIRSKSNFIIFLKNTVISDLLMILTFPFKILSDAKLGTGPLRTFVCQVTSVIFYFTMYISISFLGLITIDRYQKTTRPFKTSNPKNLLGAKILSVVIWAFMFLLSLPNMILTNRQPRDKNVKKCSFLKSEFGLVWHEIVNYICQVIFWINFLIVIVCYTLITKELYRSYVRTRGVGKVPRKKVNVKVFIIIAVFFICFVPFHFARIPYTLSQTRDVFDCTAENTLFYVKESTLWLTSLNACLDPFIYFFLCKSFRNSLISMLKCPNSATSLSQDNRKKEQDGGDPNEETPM
Procedure: A whole cell-binding assay for 2-MeS [^3H]-ADP (Custom synthesized by Amersham BioScience, Piscataway, N.J.) to the P2Y12 receptor was performed.
A P2Y12 cDNA containing hygromycin resistant gene was transfected in HEK 293 cells. A stable cell line was obtained by a cloning selection method. The cells were cultured in DMEM supplemented with 10% FBS and 1× of p/s.
On the day of the assay, the cells were harvested and resuspended in 0.25% BSA-DMEM and adjusted to a cell concentration of 1.6×10^6/ml. […] The reaction was then incubated for 30 min at 37° C. and stopped by adding cold DMEM. […] The plates were dyed in a 37° C. oven for 1-2 hours and 50 μl of MicroScint-20 (PerkinElmer) was added to each well. The radioactivity was measured using a TOPCOUNT beta counter (Packard).

ADP P2Y12 = biological target: T2, ADP P2Y12 (Homo sapiens, UniProt Q9H244); assay: FLIPR calcium assay transducing Gi-coupled signaling to the Gq pathway (inhibition of calcium mobilization); format: cell-based; settings: HEK 293 cells co-transfected with P2Y12 and Gqi5, ADP at EC60-70 dose
T2 construct: expressed in transfected cells
T2 sequence (Q9H244 whole entry): as above
Text: A FLIPR Calcium Assay Transducing Gi-Coupled Signaling to the Gq Pathway
The ADP P2Y12 subtype is a Gi coupled GPCR, which mediates inhibition of adenylate cyclase leading to decreased cAMP while Gq proteins primarily activate phospholipase C, which stimulates inositol-1,4,5-triphosphate (IP3) formation and a subsequent increase in intracellular Ca^2+ concentration, which can be easily measured by FLIPR. Prior to the development of a method to convert a Gi coupled GPCR signaling to a Gq coupled GPCR signaling, a significant barrier existed for the functional testing and screening of Gi coupled GPCRs. One popular method, GTPγS migration, is slow, produces a small signal and generates radioactive waste. The discovery that a small switch in the amino acid sequence in the Gi protein could convert it to a protein mediating a Gq coupled response has led to the development of robust, high throughput assays for this valuable receptor subtype.
The FLIPR-based HTS assay transducing the Gi signaling to the Gq pathway is described below.
pcDNA3hygroP2Y12 containing a hygromycin resistance gene and pLEC1-Gqi5-HA containing a neomycin resistance gene (licensed from Molecular Devices, Sunnyvale, Calif.) were co-transfected into Human embryonic kidney (HEK) 293 cells with SuperFect (Qiagen, Valencia, Calif.). Cell clones were selected in the presence of 600 μg/ml hygromycin B (Life Technologies, Carlsbad, Calif.) and 1 mg/ml of G418 (Mediatech, Herndon, Va.). Drug resistant colonies were picked and screened by FLIPR and the gene expression was further confirmed by RT-PCR. Positive clones were maintained in growth medium (DMEM supplemented with 10% FBS, 1×p/s) containing 400 μg/ml of G418 and 200 μg/ml of hygromycin.
The day before the assay, cells are seeded in clear, flat-bottom black-wall, tissue culture treated polystyrene 96- or 384-well plates and incubated at 37° C., 5% CO2. 50 μl of complete dye loading solution (FLIPR Calcium Assay Kit, Molecular Devices) was added to each well containing 100 μl of culture media. The cells were incubated for at least 30 min at 37° C., in 5% CO2 before initiating the assay on the FLIPR. The agonist effect of ADP was tested and EC50 was determined prior to compound testing. The EC60-70 dose was used.
The antagonist compounds were prepared at 4× and the agonists were diluted at 5× the concentration desired in the test wells, and then aliquoted into the sample plates. The sample plates and the cell plate were placed in the FLIPR assay chamber. A first addition (50 μl) was made at the start of reading and a second addition (50 μl) was made after 5 min of reading. Raw fluorescence data was exported for each well and tabulated versus time within an ASCII file. Data was then imported into Excel and the peak response over the basal level was determined. The percent inhibition for each compound was calculated by the change in fluorescent density as a % inhibition of the control ADP response to obtain an IC50, as shown in Table 1 (wherein N/A means Not Applicable).

Compound	IC50 (P2Y12 receptor)	IC50 (ADP P2Y12)
CCCSc1nc(NCc2ccco2)c2nnn([C@@H]3CC[C@H](O)[C@@H](O)[C@H]3O)c2n1 [Cpd 18, (1S,2R,3S,4R)-4-{7-[(furan-2-ylmethyl)-amino]-5-propylsulfanyl-[1,2,3]triazolo[4,5-d]pyrimidin-3-yl}-cyclohexane-1,2,3-triol]	–	> 30 µM
CCCSc1nc(NCc2cccn2C)c2nnn([C@@H]3C=C[C@H](O)[C@@H](O)[C@H]3O)c2n1 [Cpd 8, (1S,2R,3S,6R)-6-{7-[(1-methyl-1H-pyrrol-2-ylmethyl)-amino]-5-propylsulfanyl-[1,2,3]triazolo[4,5-d]pyrimidin-3-yl}-cyclohex-4-ene-1,2,3-triol]	–	> 30 µM
CCCSc1nc(N[C@@H]2C[C@H]2c2ccccc2)c2nnn([C@@H]3C=C[C@H](O)[C@H]4OC(C)(C)O[C@H]43)c2n1 (mixture of isomers) [Cpd 10, (3aR,4S,7R,7aS)-2,2-dimethyl-7-{7-[(1RS,2SR)-2-phenyl-cyclopropylamino]-5-propylsulfanyl-[1,2,3]triazolo[4,5-d]pyrimidin-3-yl}-3a,4,7,7a-tetrahydro-benzo[1,3]dioxol-4-ol]	–	> 30 µM
CCCSc1nc(NCc2ccco2)c2nnn([C@@H]3C=C[C@H](O)[C@@H](O)[C@H]3O)c2n1 [Cpd 4, (1S,2R,3S,4R)-6-{7-[(furan-2-ylmethyl)-amino]-5-propylsulfanyl-[1,2,3]triazolo[4,5-d]pyrimidin-3-yl}-cyclohex-4-ene-1,2,3-triol]	–	> 30 µM
CCCSc1nc(NCC2CCCN2CC)c2nnn([C@@H]3C=C[C@H](O)[C@@H](O)[C@H]3O)c2n1 (stereo partly drawn) [Cpd 6, (1S,2R,3S,4R)-6-{7-[(1-ethyl-pyrrolidin-2-ylmethyl)-amino]-5-propylsulfanyl-[1,2,3]triazolo[4,5-d]pyrimidin-3-yl}-cyclohex-4-ene-1,2,3-triol]	–	> 30 µM
CCCSc1nc(N[C@@H]2CCN(Cc3ccccc3)C2)c2nnn([C@@H]3CC[C@H](O)[C@@H](O)[C@H]3O)c2n1 [Cpd 22, (1S,2R,3S,4R)-4-{7-[(3R)-1-benzyl-pyrrolidin-3-ylamino]-5-propylsulfanyl-[1,2,3]triazolo[4,5-d]pyrimidin-3-yl}-cyclohexane-1,2,3-triol]	–	> 30 µM
CCCSc1nc(NC[C@@H]2CCCO2)c2nnn([C@@H]3CC[C@H](O)[C@@H](O)[C@H]3O)c2n1 [Cpd 16, (1S,2R,3S,4R)-4-(5-propylsulfanyl-7-{[(2S)-tetrahydro-furan-2-ylmethyl]-amino}-[1,2,3]triazolo[4,5-d]pyrimidin-3-yl)-cyclohexane-1,2,3-triol]	–	> 30 µM
CCCSc1nc(NC[C@H]2CCCO2)c2nnn([C@@H]3C=C[C@H](O)[C@@H](O)[C@H]3O)c2n1 [Cpd 2, (1S,2R,3S,6R)-6-(5-propylsulfanyl-7-{[(2R)-tetrahydro-furan-2-ylmethyl]-amino}-[1,2,3]triazolo[4,5-d]pyrimidin-3-yl)-cyclohex-4-ene-1,2,3-triol]	–	> 30 µM
CCCSc1nc(N[C@@H]2C[C@H]2c2ccccc2)c2nnn([C@@H]3C=C[C@H](OCCO)[C@@H](O)[C@H]3O)c2n1 (mixture of isomers) [Cpd 13, (1S,2S,3S,6R)-3-(2-hydroxy-ethoxy)-6-{7-[(1RS,2SR)-2-phenyl-cyclopropylamino]-5-propylsulfanyl-[1,2,3]triazolo[4,5-d]pyrimidin-3-yl}-cyclohex-4-ene-1,2-diol]	8.56 µM	> 30 µM

Second part, the compound after the results:

IC50 (P2Y12 receptor)	IC50 (ADP P2Y12)	Compound
2.2 µM	6.9 µM	CCCSc1nc(N[C@@H]2C[C@H]2c2ccccc2)c2nnn(C3[C@@H](O)[C@@H](O)C(OCCO)[C@@H](O)[C@H]3O)c2n1 (mixture of isomers) [Cpd 12, (1R,2R,4S,5S)-3-(2-hydroxy-ethoxy)-6-{7-[(1RS,2SR)-2-phenyl-cyclopropylamino]-5-propylsulfanyl-[1,2,3]triazolo[4,5-d]pyrimidin-3-yl}-cyclohexane-1,2,4,5-tetraol]
–	> 30 µM	CCCSc1nc(NCCc2cccs2)c2nnn([C@@H]3CC[C@H](O)[C@@H](O)[C@H]3O)c2n1 [Cpd 20, (1S,2R,3S,4R)-4-[5-propylsulfanyl-7-(2-thiophen-2-yl-ethylamino)-[1,2,3]triazolo[4,5-d]pyrimidin-3-yl]-cyclohexane-1,2,3-triol]
4.75 µM	> 30 µM	CCCSc1nc(NC[C@@H]2CCCO2)c2nnn([C@@H]3C=C[C@H](O)[C@@H](O)[C@H]3O)c2n1 [Cpd 3, (1S,2R,3S,6R)-6-(5-propylsulfanyl-7-{[(2S)-tetrahydro-furan-2-ylmethyl]-amino}-[1,2,3]triazolo[4,5-d]pyrimidin-3-yl)-cyclohex-4-ene-1,2,3-triol]
6.6 µM	2.63 µM	CCCSc1nc(N[C@@H]2C[C@H]2c2ccccc2)c2nnn([C@@H]3CC[C@H](OCCO)[C@@H](O)[C@H]3O)c2n1 (mixture of isomers) [Cpd 15, (1S,2S,3S,6R)-3-(2-hydroxy-ethoxy)-6-{7-[(1RS,2SR)-2-phenyl-cyclopropylamino]-5-propylsulfanyl-[1,2,3]triazolo[4,5-d]pyrimidin-3-yl}-cyclohexane-1,2-diol]
2.27 µM	14.7 µM	CCCSc1nc(NCCc2cccs2)c2nnn([C@@H]3C=C[C@H](O)[C@@H](O)[C@H]3O)c2n1 [Cpd 7, (1S,2R,3S,4R)-6-[5-propylsulfanyl-7-(2-thiophen-2-yl-ethylamino)-[1,2,3]triazolo[4,5-d]pyrimidin-3-yl]-cyclohex-4-ene-1,2,3-triol]
–	2.93 µM	CCCCNc1nc(SCCC)nc2c1nnn2[C@@H]1CC[C@H](O)[C@@H](O)[C@H]1O [Cpd 19, (1S,2R,3S,4R)-4-(7-butylamino-5-propylsulfanyl-[1,2,3]triazolo[4,5-d]pyrimidin-3-yl)-cyclohexane-1,2,3-triol]
